The text below walks through data of patent US20250163104A1, “MACROCYCLIC IMMUNOMODULATORS” (priority 2021, published 2025).

Where a SMILES comes first, the peptide text is derived from it. Bridges are numbered along the chain shown (N, C = ends). [ ]: non-standard residue; d: D form. The star is where a group is joined. Bip = N[C@@H](Cc1ccc(-c2ccccc2)cc1)C(=O)O; Cha = N[C@@H](CC1CCCCC1)C(=O)O; Cit = NC(=O)NCCC[C@H](N)C(=O)O; Carboxymethyl = O=C(O)C*; Orn = NCCC[C@H](N)C(=O)O; Dap = NC[C@H](N)C(=O)O

The target of the first assay is T1, human PD-1 / PD-L1-Ig binding on Jurkat cell line over-expressing human PD-1 (Jurkat-PD-1) (Homo sapiens, UniProt Q15116).
T1 construct: expressed in transfected cells; host or cells: Jurkat
T1 sequence (Q15116 25-288): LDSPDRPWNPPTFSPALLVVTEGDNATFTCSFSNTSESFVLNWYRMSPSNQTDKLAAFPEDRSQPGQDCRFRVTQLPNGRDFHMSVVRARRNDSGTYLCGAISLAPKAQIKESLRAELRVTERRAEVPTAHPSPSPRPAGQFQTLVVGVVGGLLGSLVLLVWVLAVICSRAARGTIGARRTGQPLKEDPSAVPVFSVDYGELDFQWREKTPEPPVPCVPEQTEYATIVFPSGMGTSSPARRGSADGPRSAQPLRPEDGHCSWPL
Nature of the assay: Jurkat-PD-1 Cell Binding High-Content Screening Assay (CBA). The format is cell-based. Conditions: Jurkat HPD1_PDL1 IC50, Jurkat-PD-1 cells, PE-labeled PD-L1-Ig 20 nM final. The gist of the method: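 Cell-bound PE-labeled PD-L1-Ig (20 nM final, 1 h) measured by high-content imaging after fixation and Hoechst 33342 counterstain. Compound was applied first for 2 h at 37° C. to Jurkat cells over-expressing human PD-1 in DMEM with 10% FCS.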
What is called IC50 is the concentration that inhibits the measured activity by half. As for `CC(C)C[C@H]1NC(=O)[C@H](CCCN)NC(=O)[C@H](C(C)C)NC(=O)[C@H](Cc2ccc(-c3ccccc3)cc2)NC(=O)[C@H](C(C)C)NC(=O)[C@H](Cc2c[nH]c3ccccc23)NC(=O)[C@H](CC(=O)O)NC(=O)[C@H](Cc2ccc(OCC(=O)O)cc2)NC(=O)[C@H](Cc2ccc(OCC(=O)O)cc2)NC(=O)CSC[C@@H](C(=O)N[C@@H](C)C(N)=O)NC(=O)[C@H]([C@@H](C)O)NC(=O)[C@H](C(C)C)NC(=O)[C@H](CC2CCCCC2)NC(=O)[C@H](Cc2c[nH]cn2)NC1=O` [Compound 1591], the IC50 is 0.0179 µM.
On the same count and under the same terms, to `CC[C@H](C)[C@@H]1NC(=O)[C@H](Cc2ccc(-c3ccccc3)cc2)NC(=O)[C@H](C(C)C)NC(=O)[C@H](Cc2c[nH]c3ccccc23)NC(=O)[C@H](CC(=O)O)NC(=O)[C@H](Cc2ccc(OCC(=O)O)cc2)NC(=O)[C@H](Cc2ccc(OCC(=O)O)cc2)NC(=O)CSC[C@@H](C(=O)N[C@@H](C)C(N)=O)NC(=O)[C@H]([C@@H](C)O)NC(=O)[C@H](C(C)C)NC(=O)[C@H](CC2CCCCC2)NC(=O)[C@H](Cc2c[nH]cn2)NC(=O)[C@@H](CC(C)C)NC(=O)[C@H](CCCN)NC1=O` [Compound 1592] belongs 0.0315 µM.
`CC(C)C[C@H]1NC(=O)[C@H](CCCN)NC(=O)[C@H](CCCNC(N)=O)NC(=O)[C@H](Cc2ccc(-c3ccccc3)cc2)NC(=O)[C@H](C(C)C)NC(=O)[C@H](Cc2c[nH]c3ccccc23)NC(=O)[C@H](CC(=O)O)NC(=O)[C@H](Cc2ccc(OCC(=O)O)cc2)NC(=O)[C@H](Cc2ccc(OCC(=O)O)cc2)NC(=O)CSC[C@@H](C(=O)N[C@@H](C)C(N)=O)NC(=O)[C@H]([C@@H](C)O)NC(=O)[C@H](C(C)C)NC(=O)[C@H](CC2CCCCC2)NC(=O)[C@H](Cc2c[nH]cn2)NC1=O` [Compound 1594] yielded an IC50 of 0.0194 µM.
On the same count and under the same terms, the same measure for `CC(C)C[C@H]1NC(=O)[C@H](CCCN)NC(=O)[C@H](CCC(=O)O)NC(=O)[C@H](Cc2ccc(-c3ccccc3)cc2)NC(=O)[C@H](C(C)C)NC(=O)[C@H](Cc2c[nH]c3ccccc23)NC(=O)[C@H](CC(=O)O)NC(=O)[C@H](Cc2ccc(C(=O)O)cc2)NC(=O)[C@H](Cc2ccncc2)NC(=O)CSC[C@@H](C(=O)N[C@@H](C)C(N)=O)NC(=O)[C@H]([C@@H](C)O)NC(=O)[C@H](C(C)C)NC(=O)[C@H](CC2CCCCC2)NC(=O)[C@H](Cc2c[nH]cn2)NC1=O` [Compound 1597]: 0.0202 µM.
`CC(C)C[C@H]1NC(=O)[C@H](CCCN)NC(=O)[C@H](CCCNC(N)=O)NC(=O)[C@H](Cc2ccc(-c3ccccc3)cc2)NC(=O)[C@H](C(C)C)NC(=O)[C@H](Cc2c[nH]c3ccccc23)NC(=O)[C@H](CC(=O)O)NC(=O)[C@H](Cc2ccc(C(=O)O)cc2)NC(=O)[C@H](Cc2ccncc2)NC(=O)CSC[C@@H](C(=O)N[C@@H](C)C(N)=O)NC(=O)[C@H]([C@@H](C)O)NC(=O)[C@H](C(C)C)NC(=O)[C@H](CC2CCCCC2)NC(=O)[C@H](Cc2c[nH]cn2)NC1=O` [Compound 1598] gave a half-inhibitory concentration (IC50) of 0.0099 µM.
In the case of `CC(C)C[C@H]1NC(=O)[C@H](CCCN)NC(=O)[C@H](CCCNC(N)=O)NC(=O)[C@H](Cc2ccc(-c3ccccc3)cc2)NC(=O)[C@H](C(C)C)NC(=O)[C@H](Cc2c[nH]c3ccccc23)NC(=O)[C@H](CC(=O)O)NC(=O)[C@H](Cc2ccc(C(=O)O)cc2)NC(=O)[C@H](Cc2ccc(OCC(=O)O)cc2)NC(=O)CSC[C@@H](C(=O)N[C@@H](C)C(N)=O)NC(=O)[C@H]([C@@H](C)O)NC(=O)[C@H](C(C)C)NC(=O)[C@H](CC2CCCCC2)NC(=O)[C@H](Cc2c[nH]cn2)NC1=O` [Compound 1602], the IC50 turned out to be 0.0238 µM.
The same measure, in the same setting: the same measure for `CC[C@H](C)[C@@H]1NC(=O)[C@H](Cc2ccc(-c3ccccc3)cc2)NC(=O)[C@H](C(C)C)NC(=O)[C@H](Cc2c[nH]c3ccccc23)NC(=O)[C@H](CC(=O)O)NC(=O)[C@H](Cc2ccncc2)NC(=O)[C@H](Cc2ccc(OCC(=O)O)cc2)NC(=O)CSC[C@@H](C(=O)N[C@@H](C)C(N)=O)NC(=O)[C@H]([C@@H](C)O)NC(=O)[C@H](C(C)C)NC(=O)[C@H](CC2CCCCC2)NC(=O)[C@H](Cc2c[nH]cn2)NC(=O)[C@@H](CC(C)C)NC(=O)[C@H](CCCN)NC1=O` [Compound 1604]: 0.0458 µM; for `CC(C)C[C@H]1NC(=O)[C@H](CCCN)NC(=O)[C@H](CCC(=O)O)NC(=O)[C@H](Cc2ccc(-c3ccccc3)cc2)NC(=O)[C@H](C(C)C)NC(=O)[C@H](Cc2c[nH]c3ccccc23)NC(=O)[C@H](CC(=O)O)NC(=O)[C@H](Cc2ccncc2)NC(=O)[C@H](Cc2ccc(OCC(=O)O)cc2)NC(=O)CSC[C@@H](C(=O)N[C@@H](C)C(N)=O)NC(=O)[C@H]([C@@H](C)O)NC(=O)[C@H](C(C)C)NC(=O)[C@H](CC2CCCCC2)NC(=O)[C@H](Cc2c[nH]cn2)NC1=O` [Compound 1605]: 0.0231 µM.
Still for that read-out and setting: to `CC(C)C[C@H]1NC(=O)[C@H](CCCN)NC(=O)[C@H](CCC(=O)O)NC(=O)[C@H](Cc2ccc(-c3ccccc3)cc2)NC(=O)[C@H](C(C)C)NC(=O)[C@H](Cc2c[nH]c3ccccc23)NC(=O)[C@H](CC(=O)O)NC(=O)[C@H](Cc2ccc(OCC(=O)O)cc2)NC(=O)[C@H](Cc2ccncc2)NC(=O)CSC[C@@H](C(=O)N[C@@H](C)C(N)=O)NC(=O)[C@H]([C@@H](C)O)NC(=O)[C@H](C(C)C)NC(=O)[C@H](CC2CCCCC2)NC(=O)[C@H](Cc2c[nH]cn2)NC1=O` [Compound 1609] belongs 0.0153 µM; to `CC(C)C[C@H]1NC(=O)[C@H](CCCN)NC(=O)[C@H](CCCNC(N)=O)NC(=O)[C@H](Cc2ccc(-c3ccccc3)cc2)NC(=O)[C@H](C(C)C)NC(=O)[C@H](Cc2c[nH]c3ccccc23)NC(=O)[C@H](CC(=O)O)NC(=O)[C@H](Cc2ccc(OCC(=O)O)cc2)NC(=O)[C@H](Cc2ccncc2)NC(=O)CSC[C@@H](C(=O)N[C@@H](C)C(N)=O)NC(=O)[C@H]([C@@H](C)O)NC(=O)[C@H](C(C)C)NC(=O)[C@H](CC2CCCCC2)NC(=O)[C@H](Cc2c[nH]cn2)NC1=O` [Compound 1610], 0.0215 µM.

The same assay, now with this note: Jurkat-PD-1 cells, PE-labeled PD-L1-Ig 20 nM final; read-out: Jurkat HPD1_PDL1 IC50.
As for `Cc1cccc(C[C@@H]2NC(=O)[C@H](CC(=O)O)NC(=O)[C@H](Cc3ccc(OCC(=O)O)cc3)NC(=O)[C@H](Cc3cccnc3)NC(=O)CSC[C@@H](C(=O)N[C@@H](C)C(N)=O)NC(=O)[C@H]([C@@H](C)O)NC(=O)[C@H](C(C)C)NC(=O)[C@H](CC3CCCCC3)NC(=O)[C@H](Cc3cnc[nH]3)NC(=O)[C@@H](CC(C)C)NC(=O)[C@H](CCCN)NC(=O)[C@H](C(C)C)NC(=O)[C@H](Cc3ccc(-c4ccccc4)cc3)NC(=O)[C@H](C(C)C)NC2=O)c1` [Compound 1587], the IC50 was determined as 0.026 µM.
As for `Cc1cccc(C[C@@H]2NC(=O)[C@H](CC(=O)O)NC(=O)[C@H](Cc3ccc(OCC(=O)O)cc3)NC(=O)[C@H](Cc3ccncc3)NC(=O)CSC[C@@H](C(=O)N[C@@H](C)C(N)=O)NC(=O)[C@H]([C@@H](C)O)NC(=O)[C@H](C(C)C)NC(=O)[C@H](CC3CCCCC3)NC(=O)[C@H](Cc3cnc[nH]3)NC(=O)[C@@H](CC(C)C)NC(=O)[C@H](CCCN)NC(=O)[C@H](C(C)C)NC(=O)[C@H](Cc3ccc(-c4ccccc4)cc3)NC(=O)[C@H](C(C)C)NC2=O)c1` [Compound 1588], the half-inhibitory concentration (IC50) worked out at 0.0254 µM.
Consider `CC[C@H](C)[C@@H]1NC(=O)[C@H](Cc2ccc(-c3ccccc3)cc2)NC(=O)[C@H](C(C)C)NC(=O)[C@H](Cc2c[nH]c3ccccc23)NC(=O)[C@H](CC(=O)O)NC(=O)[C@H](Cc2ccc(OCC(=O)O)cc2)NC(=O)[C@H](CN)NC(=O)CSC[C@@H](C(=O)N[C@@H](C)C(N)=O)NC(=O)[C@H]([C@@H](C)O)NC(=O)[C@H](C(C)C)NC(=O)[C@H](CC2CCCCC2)NC(=O)[C@H](Cc2cnc[nH]2)NC(=O)[C@@H](CC(C)C)NC(=O)[C@H](CCCN)NC1=O` [Compound 1589], for which the IC50 was 0.0164 µM.
Regarding `CC(C)C[C@H]1NC(=O)[C@H](CCCN)NC(=O)[C@H](CCCNC(N)=O)NC(=O)[C@H](Cc2ccc(-c3ccccc3)cc2)NC(=O)[C@H](C(C)C)NC(=O)[C@H](Cc2c[nH]c3ccccc23)NC(=O)[C@H](CC(=O)O)NC(=O)[C@H](Cc2ccc(OCC(=O)O)cc2)NC(=O)[C@H](CN)NC(=O)CSC[C@@H](C(=O)N[C@@H](C)C(N)=O)NC(=O)[C@H]([C@@H](C)O)NC(=O)[C@H](C(C)C)NC(=O)[C@H](CC2CCCCC2)NC(=O)[C@H](Cc2c[nH]cn2)NC1=O` [Compound 1590] ({CH2CO}-[Dap]Y(Carboxymethyl)DWV[Bip][Cit][Orn][dL]H[Cha]VTCA-NH2; thioether N-14), the IC50 is 0.009 µM.
Consider `CC(C)C[C@H]1NC(=O)[C@H](CCCN)NC(=O)[C@H](CCC(=O)O)NC(=O)[C@H](Cc2ccc(-c3ccccc3)cc2)NC(=O)[C@H](C(C)C)NC(=O)[C@H](Cc2c[nH]c3ccccc23)NC(=O)[C@H](CC(=O)O)NC(=O)[C@H](Cc2ccc(OCC(=O)O)cc2)NC(=O)[C@H](Cc2ccc(OCC(=O)O)cc2)NC(=O)CSC[C@@H](C(=O)N[C@@H](C)C(N)=O)NC(=O)[C@H]([C@@H](C)O)NC(=O)[C@H](C(C)C)NC(=O)[C@H](CC2CCCCC2)NC(=O)[C@H](Cc2cnc[nH]2)NC1=O` [Compound 1593], for which the IC50 amounted to 0.023 µM.
With `CC(C)C[C@H]1NC(=O)[C@H](CCCN)NC(=O)[C@H](C(C)C)NC(=O)[C@H](Cc2ccc(-c3ccccc3)cc2)NC(=O)[C@H](C(C)C)NC(=O)[C@H](Cc2c[nH]c3ccccc23)NC(=O)[C@H](CC(=O)O)NC(=O)[C@H](Cc2ccc(OCC(=O)O)cc2)NC(=O)[C@H](Cc2ccncc2)NC(=O)CSC[C@@H](C(=O)N[C@@H](C)C(N)=O)NC(=O)[C@H]([C@@H](C)O)NC(=O)[C@H](C(C)C)NC(=O)[C@H](CC2CCCCC2)NC(=O)[C@H](Cc2cnc[nH]2)NC1=O` [Compound 1607], the half-maximal inhibitory concentration (IC50) is 0.0146 µM.
In the case of `CC[C@H](C)[C@@H]1NC(=O)[C@H](Cc2ccc(-c3ccccc3)cc2)NC(=O)[C@H](C(C)C)NC(=O)[C@H](Cc2c[nH]c3ccccc23)NC(=O)[C@H](CC(=O)O)NC(=O)[C@H](Cc2ccc(OCC(=O)O)cc2)NC(=O)[C@H](Cc2ccncc2)NC(=O)CSC[C@@H](C(=O)N[C@@H](C)C(N)=O)NC(=O)[C@H]([C@@H](C)O)NC(=O)[C@H](C(C)C)NC(=O)[C@H](CC2CCCCC2)NC(=O)[C@H](Cc2cnc[nH]2)NC(=O)[C@@H](CC(C)C)NC(=O)[C@H](CCCN)NC1=O` [Compound 1608], the IC50 was found to be 0.0322 µM.
